Marks after values point to notes of the source that are not given here.
Key:
[1] = Crude glycerin as pellet binder: pellet mill current usage and pellet durability index (PDI); format: physicochemical
Description: In this embodiment, the crude glycerin [FROM SHEET WHEN GET FROM NEIL] […] Two corn/soy diets, one with low fat and one with high fat, and two high fiber diets, one with low fat and one with high fat, were formulated to provide the four treatment groups. […] Table 1 references diet formulations tested. The “HFP” referred to in Table 1 refers to a High Fat Product available from Archer Daniels Midland Company, Decatur, Ill. […] [table]

[2] = Crude glycerin in finishing cattle diets: animal performance (weight, ADG, DMI, gain/feed); format: in vivo, Angus-cross steers; conditions: for Average Daily Gain / Dry Matter Intake / Gain/Feed, ×100 / Weight: 10% DM glycerin
Protocol: All cattle were adapted on a common 4-step transition prior to initiation of the evaluation. Cattle were blocked by weight (4 blocks) with four pens per treatment (9-10 head/pen). […] Individual weights were collected at 28-day intervals throughout with steers terminated on three harvest dates (days on feed 116 to 153 days) based on weight and condition. Six monthly periods and cumulative (d 1-116 and 1-153) periods were analyzed.

[3] = Methanol concentration of stored crude glycerin; format: physicochemical; conditions: stored in sealed totes approximately 5 months, analyzed in duplicate; certificate of analysis 800 ppm
Description: A subset of ten cattle (5 from each treatment) were used for baseline and withdrawal sampling of rumen fluid and blood plasma for residual methanol quantification. […] Withdrawal samples were collected from the same subset of animals.

[4] = Glycerin as feed ingredient for lactating dairy cattle; format: in vivo, lactating Holstein cows; conditions: for Estimated Net Energy for Lactation (of the entire diet): calculated from energy output in milk and body weight increase
Protocol: In another embodiment, an evaluation was conducted to assess practical energy value of using glycerin as a feed ingredient for lactating dairy cattle. […] Diets were balanced to meet energy requirements based on the control diet, be isonitrogenous, and balanced to meet or exceed requirements for all other nutrients. The basal ration contained corn silage, alfalfa haylage, hay, high-moisture corn, vitamins, and minerals, and was formulated to contain about 17% CP, 6.5% RUP, and 10.5 RDP (DM basis).

[5] = Day 1-28, DDGS:Soy Hulls 10:0 diet (Treatment 2)
[6] = Day 1-28, DDGS:Soy Hulls 30:15 diet (Treatment 4)
[7] = Day 1-28, main effect over both diets
[8] = Day 1-116, DDGS:Soy Hulls 10:0 diet (Treatment 2)
[9] = Day 1-116, DDGS:Soy Hulls 30:15 diet (Treatment 4)
[10] = Day 1-116, main effect over both diets
[11] = Day 1-153, DDGS:Soy Hulls 10:0 diet (Treatment 2)
[12] = Day 1-153, DDGS:Soy Hulls 30:15 diet (Treatment 4)
[13] = Day 1-153, main effect over both diets
[14] = Day 29-56, DDGS:Soy Hulls 10:0 diet (Treatment 2)
[15] = Day 29-56, DDGS:Soy Hulls 30:15 diet (Treatment 4)
[16] = Day 29-56, main effect over both diets
[17] = Day 57-84, DDGS:Soy Hulls 10:0 diet (Treatment 2)
[18] = Day 57-84, DDGS:Soy Hulls 30:15 diet (Treatment 4)
[19] = Day 57-84, main effect over both diets
[20] = Day 85-116, DDGS:Soy Hulls 10:0 diet (Treatment 2)
[21] = Day 85-116, DDGS:Soy Hulls 30:15 diet (Treatment 4)
[22] = Day 85-116, main effect over both diets
[23] = Day 117-132, DDGS:Soy Hulls 10:0 diet (Treatment 2)
[24] = Day 117-132, DDGS:Soy Hulls 30:15 diet (Treatment 4)
[25] = Day 117-132, main effect over both diets
[26] = Day 133-153, DDGS:Soy Hulls 10:0 diet (Treatment 2)
[27] = Day 133-153, DDGS:Soy Hulls 30:15 diet (Treatment 4)
[28] = Day 133-153, main effect over both diets
[29] = high co-product diets with glycerin

SMILES: OCC(O)CO [crude glycerin, glycerin]
- PDI ([1]; Corn/Soy High Fat diet, crude glycerin 2.5%): 54
- PDI ([1]; Corn/Soy High Fat diet, crude glycerin 5.0%): 66
- PDI ([1]; Corn/Soy Low Fat diet, crude glycerin 2.5%): 89
- PDI ([1]; Corn/Soy Low Fat diet, crude glycerin 5.0%): 93
- PDI ([1]; High Fiber High Fat diet, crude glycerin 2.5%): 89
- PDI ([1]; High Fiber High Fat diet, crude glycerin 5.0%): 91
- PDI ([1]; High Fiber Low Fat diet, crude glycerin 2.5%): 98
- PDI ([1]; High Fiber Low Fat diet, crude glycerin 5.0%): 98
- Average Daily Gain [2, 5]: 1.46^a kg/hd/d
- Dry Matter Intake [2, 5]: 7.97^c kg/hd/d
- Gain/Feed, ×100 [2, 5]: 18.27^a
- Average Daily Gain [2, 6]: 1.31^ab kg/hd/d
- Dry Matter Intake [2, 6]: 8.34^bc kg/hd/d
- Gain/Feed, ×100 [2, 6]: 15.64^b
- Average Daily Gain [2, 7]: 1.38 kg/hd/d
- Dry Matter Intake [2, 7]: 8.16 kg/hd/d
- Gain/Feed, ×100 [2, 7]: 16.96
- Average Daily Gain [2, 8]: 1.30 kg/hd/d
- Dry Matter Intake [2, 8]: 8.31^c kg/hd/d
- Gain/Feed, ×100 [2, 8]: 15.66^a
- Average Daily Gain [2, 9]: 1.27 kg/hd/d
- Dry Matter Intake [2, 9]: 8.95^b kg/hd/d
- Gain/Feed, ×100 [2, 9]: 14.28^b
- Average Daily Gain [2, 10]: 1.29 kg/hd/d
- Dry Matter Intake [2, 10]: 8.63 kg/hd/d
- Gain/Feed, ×100 [2, 10]: 14.97
- Average Daily Gain [2, 11]: 1.27^a kg/hd/d
- Dry Matter Intake [2, 11]: 8.37^c kg/hd/d
- Gain/Feed, ×100 [2, 11]: 15.21^a
- Average Daily Gain [2, 12]: 1.21^ab kg/hd/d
- Dry Matter Intake [2, 12]: 8.99^b kg/hd/d
- Gain/Feed, ×100 [2, 12]: 13.43^b
- Average Daily Gain [2, 13]: 1.24 kg/hd/d
- Dry Matter Intake [2, 13]: 8.68 kg/hd/d
- Gain/Feed, ×100 [2, 13]: 14.32
- Weight ([2]; Day 28, DDGS:Soy Hulls 10:0 diet (Treatment 2)): 428.2^a kg
- Weight ([2]; Day 28, DDGS:Soy Hulls 30:15 diet (Treatment 4)): 423.9^ab kg
- Weight ([2]; Day 28, main effect over both diets): 426.1 kg
- Average Daily Gain [2, 14]: 1.53 kg/hd/d
- Dry Matter Intake [2, 14]: 8.78^c kg/hd/d
- Gain/Feed, ×100 [2, 14]: 17.43^a
- Average Daily Gain [2, 15]: 1.66 kg/hd/d
- Dry Matter Intake [2, 15]: 9.95^b kg/hd/d
- Gain/Feed, ×100 [2, 15]: 16.78^a
- Average Daily Gain [2, 16]: 1.60 kg/hd/d
- Dry Matter Intake [2, 16]: 9.36 kg/hd/d
- Gain/Feed, ×100 [2, 16]: 17.10
- Weight ([2]; Day 56, DDGS:Soy Hulls 10:0 diet (Treatment 2)): 471.2 kg
- Weight ([2]; Day 56, DDGS:Soy Hulls 30:15 diet (Treatment 4)): 470.5 kg
- Weight ([2]; Day 56, main effect over both diets): 470.9 kg
- Average Daily Gain [2, 17]: 1.29 kg/hd/d
- Dry Matter Intake [2, 17]: 8.84^b kg/hd/d
- Gain/Feed, ×100 [2, 17]: 14.64
- Average Daily Gain [2, 18]: 1.25 kg/hd/d
- Dry Matter Intake [2, 18]: 9.37^b kg/hd/d
- Gain/Feed, ×100 [2, 18]: 13.36
- Average Daily Gain [2, 19]: 1.27 kg/hd/d
- Dry Matter Intake [2, 19]: 9.11 kg/hd/d
- Gain/Feed, ×100 [2, 19]: 14.00
- Weight ([2]; Day 84, DDGS:Soy Hulls 10:0 diet (Treatment 2)): 507.3 kg
- Weight ([2]; Day 84, DDGS:Soy Hulls 30:15 diet (Treatment 4)): 505.4 kg
- Weight ([2]; Day 84, main effect over both diets): 506.4 kg
- Average Daily Gain [2, 20]: 0.97 kg/hd/d
- Dry Matter Intake [2, 20]: 7.74^c kg/hd/d
- Gain/Feed, ×100 [2, 20]: 12.47
- Average Daily Gain [2, 21]: 0.93 kg/hd/d
- Dry Matter Intake [2, 21]: 8.25^bc kg/hd/d
- Gain/Feed, ×100 [2, 21]: 11.22
- Average Daily Gain [2, 22]: 0.95 kg/hd/d
- Dry Matter Intake [2, 22]: 8.00 kg/hd/d
- Gain/Feed, ×100 [2, 22]: 11.84
- Weight ([2]; Day 116, DDGS:Soy Hulls 10:0 diet (Treatment 2)): 538.3 kg
- Weight ([2]; Day 116, DDGS:Soy Hulls 30:15 diet (Treatment 4)): 535.1 kg
- Weight ([2]; Day 116, main effect over both diets): 536.7 kg
- Average Daily Gain [2, 23]: 1.46 kg/hd/d
- Dry Matter Intake [2, 23]: 8.67^ab kg/hd/d
- Gain/Feed, ×100 [2, 23]: 17.25
- Average Daily Gain [2, 24]: 1.26 kg/hd/d
- Dry Matter Intake [2, 24]: 9.54^ab kg/hd/d
- Gain/Feed, ×100 [2, 24]: 12.86
- Average Daily Gain [2, 25]: 1.36 kg/hd/d
- Dry Matter Intake [2, 25]: 9.11 kg/hd/d
- Gain/Feed, ×100 [2, 25]: 15.06
- Weight ([2]; Day 132, DDGS:Soy Hulls 10:0 diet (Treatment 2)): 552.8 kg
- Weight ([2]; Day 132, DDGS:Soy Hulls 30:15 diet (Treatment 4)): 548.8 kg
- Weight ([2]; Day 132, main effect over both diets): 550.8 kg
- Average Daily Gain [2, 26]: 1.39^a kg/hd/d
- Dry Matter Intake [2, 26]: 8.48 kg/hd/d
- Gain/Feed, ×100 [2, 26]: 16.48^a
- Average Daily Gain [2, 27]: 0.90^b kg/hd/d
- Dry Matter Intake [2, 27]: 9.42 kg/hd/d
- Gain/Feed, ×100 [2, 27]: 9.35^b
- Average Daily Gain [2, 28]: 1.15 kg/hd/d
- Dry Matter Intake [2, 28]: 8.95 kg/hd/d
- Gain/Feed, ×100 [2, 28]: 12.92
- Weight ([2]; Day 153, DDGS:Soy Hulls 10:0 diet (Treatment 2)): 570.5 kg
- Weight ([2]; Day 153, DDGS:Soy Hulls 30:15 diet (Treatment 4)): 548.0 kg
- Weight ([2]; Day 153, main effect over both diets): 559.3 kg
- Cumulative ADG better [2, 29]: 2.5%
- cumulative DMI lower [2, 29]: 11.8%
- cumulative gain: feed better [2, 29]: 16.4%
- Cumulative ADG greater ([2]; high-grain diets with glycerin): 11.4%
- cumulative DMI lesser ([2]; high-grain diets with glycerin): 8.1%
- cumulative gain: feed greater ([2]; high-grain diets with glycerin): 21.9%
- Cumulative ADG ([2]; steers fed diets containing 10% crude glycerin (main effect)): 1.24 kg/day
- dry matter intake (DMI) ([2]; steers fed diets with added glycerin (main effect), cumulative): 8.68 kg/day
- methanol concentration of crude glycerin samples [3]: 756 ppm
- Body Weight change ([4]; 5% glycerin fed (DM basis)): 89.6^ab lbs.
- Body condition score change ([4]; 5% glycerin fed (DM basis)): 0.1
- Feed intake ([4]; 5% glycerin fed (DM basis)): 53.9 lb/day
- Milk production ([4]; 5% glycerin fed (DM basis)): 81.2 lb/day
- Milk urea Nitrogen ([4]; 5% glycerin fed (DM basis)): 10.9^b mg/dl
- Somatic Cell Count ([4]; 5% glycerin fed (DM basis)): 490 1000 cells/ml
- Estimated Net Energy for Lactation (of the entire diet) ([4]; 5% glycerin fed (DM basis)): 1.55 mcal/kg
- Body Weight change ([4]; 10% glycerin fed (DM basis)): 109.3^b lbs.
- Body condition score change ([4]; 10% glycerin fed (DM basis)): 0.1
- Feed intake ([4]; 10% glycerin fed (DM basis)): 54.1 lb/day
- Milk production ([4]; 10% glycerin fed (DM basis)): 82.1 lb/day
- Milk urea Nitrogen ([4]; 10% glycerin fed (DM basis)): 10.7^b mg/dl
- Somatic Cell Count ([4]; 10% glycerin fed (DM basis)): 137 1000 cells/ml
- Estimated Net Energy for Lactation (of the entire diet) ([4]; 10% glycerin fed (DM basis)): 1.57 mcal/kg
- Body Weight change ([4]; 15% glycerin fed (DM basis)): 113.5^b lbs.
- Body condition score change ([4]; 15% glycerin fed (DM basis)): 0.1
- Feed intake ([4]; 15% glycerin fed (DM basis)): 53.0 lb/day
- Milk production ([4]; 15% glycerin fed (DM basis)): 80.0 lb/day
- Milk urea Nitrogen ([4]; 15% glycerin fed (DM basis)): 10.2^b mg/dl
- Somatic Cell Count ([4]; 15% glycerin fed (DM basis)): 144 1000 cells/ml
- Estimated Net Energy for Lactation (of the entire diet) ([4]; 15% glycerin fed (DM basis)): 1.58 mcal/kg
